From ChEMBL document CHEMBL1201862, “PubChem BioAssay data set” (2004)
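Cells were grown in 96-well plates and exposed to each compound for 48 hours at five concentrations; endpoints were interpolated linearly between bracketing concentrations, or set to the highest concentration if not reached. GI50 is the concentration that inhibits growth by half.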 The source made the active and inactive calls. Cut-off read from the data, not from the text of the source: active = GI50 up to about 1.1 µM and inactive = higher.

Tests used:
Test in all cases: NCI-60 cell line screen, 48 h
OVCAR-5 = tested on: OVCAR-5
OVCAR-3 = tested on: OVCAR-3
SK-OV-3 = tested on: SK-OV-3
EKVX = tested on: EKVX
UO-31 = tested on: UO-31
UACC-62 = tested on: UACC-62
UACC-257 = tested on: UACC-257
HT-29 = tested on: HT-29
SN12C = tested on: SN12C
HOP-92 = tested on: HOP-92
M14 = tested on: M14
SF-268 = tested on: SF-268
ACHN = tested on: ACHN
SR = tested on: SR
IGROV-1 = tested on: IGROV-1
RPMI-8226 = tested on: RPMI-8226
SK-MEL-2 = tested on: SK-MEL-2

Measured: GI50

CN1CN(C2OC(CO)C(O)C2O)c2nc(N)[nH]c(=O)c21 (stereo not given)
inactive: OVCAR-5 > 100 µM | OVCAR-3 > 100 µM | SK-OV-3 > 100 µM | EKVX > 100 µM | UO-31 > 100 µM | UACC-62 > 100 µM | UACC-257 > 100 µM | HT-29 > 100 µM | SN12C > 100 µM | HOP-92 > 100 µM | M14 > 100 µM | SF-268 > 100 µM | ACHN > 100 µM | SR > 100 µM | IGROV-1 > 100 µM | RPMI-8226 > 100 µM | SK-MEL-2 > 100 µM

Cc1cc(Br)cc(C)c1NC(=O)C(=O)C(C(=O)c1ccncc1)C1OC(=O)c2ccccc21 (stereo not given)
inactive: OVCAR-5 > 100 µM | OVCAR-3 > 100 µM | SK-OV-3 > 100 µM | EKVX > 100 µM | UO-31 > 100 µM | UACC-62 > 100 µM | UACC-257 > 100 µM | SN12C > 100 µM | HOP-92 > 100 µM | M14 > 100 µM | SF-268 > 100 µM | ACHN > 100 µM | SR > 100 µM | IGROV-1 > 100 µM | RPMI-8226 > 100 µM

NC1=NS(=O)(=O)Nc2nc(-c3ccc([N+](=O)[O-])cc3)[nH]c21
inactive: OVCAR-5 > 100 µM | OVCAR-3 > 100 µM | SK-OV-3 > 100 µM | UO-31 > 100 µM | UACC-62 > 100 µM | HT-29 > 100 µM | SN12C > 100 µM | HOP-92 > 100 µM | M14 > 100 µM | SF-268 > 100 µM | ACHN > 100 µM | SR > 100 µM | IGROV-1 > 100 µM | RPMI-8226 > 100 µM | SK-MEL-2 > 100 µM

COCC1C(=O)c2cc3c(cc2C12C=CC1(C=C2)OCCO1)OCO3 (stereo not given)
inactive: OVCAR-3 13.7 µM | SK-OV-3 16.1 µM | EKVX 16.6 µM | UACC-62 12.2 µM | UACC-257 17.9 µM | HT-29 3.94 µM | SN12C 10.9 µM | HOP-92 14.5 µM | M14 3.38 µM | SF-268 3.86 µM | ACHN 12.7 µM | SR 1.82 µM | IGROV-1 15.4 µM | RPMI-8226 1.43 µM | SK-MEL-2 11.7 µM

CCC(=O)NCC1(c2c[nH]c3ccccc23)SCCS1
inactive: OVCAR-5 > 100 µM | OVCAR-3 > 100 µM | SK-OV-3 > 100 µM | EKVX > 100 µM | UACC-62 63.4 µM | UACC-257 > 100 µM | HT-29 53 µM | SN12C > 100 µM | HOP-92 > 100 µM | M14 > 100 µM | SF-268 > 100 µM | ACHN 82 µM | SR > 100 µM | IGROV-1 > 100 µM | RPMI-8226 > 100 µM | SK-MEL-2 > 100 µM

COC(=O)C1C2C=CC(C2)C1(C(=O)OC)[S+]([O-])CC12CCC(CC1O)C2(C)C (stereo not given)
inactive: OVCAR-5 > 100 µM | OVCAR-3 > 100 µM | SK-OV-3 > 100 µM | EKVX > 100 µM | UO-31 > 100 µM | UACC-62 > 100 µM | UACC-257 > 100 µM | HT-29 > 100 µM | SN12C > 100 µM | HOP-92 > 100 µM | M14 > 100 µM | SF-268 > 100 µM | ACHN > 100 µM | SR 31.2 µM | IGROV-1 > 100 µM | RPMI-8226 70.1 µM | SK-MEL-2 > 100 µM
